Row | melting point | Compound
1 | 103 to 105 °C | CCc1c(C)sc(N)c1C#N
2 | 137 to 139 °C | CC(C)c1cc(C(=O)O)nn1-c1ccccc1
3 | 52 to 54 °C | CC(N)c1ccc(OCc2ccc(F)cc2)cc1 (centres undefined)
4 | 202 to 204 °C | O=C(O)C1CCN(C(=O)c2ccc(Br)cc2)CC1
5 | 184 to 186 °C | Cc1ccc(NC(N)=S)cc1C
6 | 147 to 150 °C | N#Cc1cc(C(=O)c2ccccc2O)cn(-c2ccccn2)c1=O
7 | 193 to 195 °C | O=C(CCl)NCc1ccc(C(=O)O)cc1
8 | 67 to 69 °C | CC(=O)c1ccc(N2CCCCC2)c(F)c1
9 | 149 to 151 °C | O=C(O)COc1ccc([N+](=O)[O-])c(F)c1
10 | 142 to 144 °C | CN(C)CCOc1ccc(C(N)=S)cc1
11 | 139 to 141 °C | O=C(O)CS(=O)(=O)c1cccc(Br)c1
12 | 148 to 150 °C | Cc1nn(-c2ccccc2)c(C)c1SCC(=O)O
13 | 29 to 31 °C | Cn1cc(CO)nn1
14 | 111 to 113 °C | NC(CCN1CCN(Cc2ccccc2)CC1)=NO
15 | 248 to 250 °C | O=C(O)CN1CCCNC1=O
16 | 144 to 146 °C | Nc1nc2c(OC(F)F)cccc2s1
17 | 121 to 123 °C | Cc1cc2c(n1-c1cccc(C(F)(F)F)c1)CCCC2=O
18 | 76 to 78 °C | O=C(O)CCCOc1ccccc1F
19 | 130 to 132 °C | O=C(O)CCn1ncc(=O)c2ccccc21
20 | 134 to 136 °C | O=C(O)CCC(=O)N1CCSc2ccccc21
21 | 129 to 131 °C | O=C(CCl)N1CCN(c2ccc([N+](=O)[O-])cc2)CC1
22 | 70 to 72 °C | Cn1cc(S(=O)(=O)Cl)c([N+](=O)[O-])n1
23 | 142 to 144 °C | CCOC(=O)/C(C#N)=C/Nc1ccc(F)cc1F
24 | 135 to 137 °C | Brc1ccccc1Cc1nn[nH]n1
25 | 66 to 68 °C | OC(Cc1ccc(Cl)cc1)C(F)(F)F (centres undefined)
26 | 139 to 141 °C | COc1cccc(C(=O)c2c[nH]c3ncccc23)c1

Row | melting point | Compound
27 | 171 to 173 °C | CSCCC(NC(=O)c1ccccc1Br)C(=O)O (centres undefined)
28 | 167 to 169 °C | Nc1ccc(N2CCNC(=O)C2)cc1
29 | 135 to 137 °C | CC(C)(C)OC(=O)NC(CC(=O)O)c1ccccc1 (centres undefined)
30 | 144 to 146 °C | Nc1cc(Cl)ccc1N1CCC(CO)CC1
31 | 158 to 160 °C | Cc1ccc(Nc2nc(N)nc(CCl)n2)cc1
32 | 176 to 178 °C | NS(=O)(=O)c1cc(C(=O)O)co1
33 | 70 to 72 °C | COc1ccc(-c2csc(CC#N)n2)cc1
34 | 137 to 139 °C | Cc1ccc(Cl)c(OC(C)C(=O)O)c1 (centres undefined)
35 | 144 to 146 °C | Cn1c(=O)oc2cc(Br)ccc21
36 | 339 to 341 °C | O=C(O)c1cc(NCc2ccccc2)nc2ccccc12
37 | 211 to 213 °C | CC(C)CNc1c(N)n(Cc2ccccc2)c(=O)[nH]c1=O
38 | 129 to 131 °C | CNC(=O)c1cc(OC)c(OC)cc1N
39 | 104 to 106 °C | Cc1ccc(S(=O)(=O)Nc2ccc(Cl)cc2)cc1N
40 | 84 to 86 °C | N#Cc1csc(C=O)c1
41 | 174 to 176 °C | COc1ccc(NC(=O)NCCC(=O)O)cc1
42 | 223 to 225 °C | Cc1cc(=O)c(C(=O)O)nn1-c1cccc(Cl)c1
43 | 230 to 232 °C | O=C(O)c1cccc(CN2CCS(=O)(=O)CC2)c1
44 | 96 to 98 °C | COc1ccccc1CNc1nc(-c2ccc(C)cc2)cs1
45 | 106 to 108 °C | O=C(O)CCCc1ccc(O)cc1
46 | 168 to 170 °C | CC(C)c1c(C(=O)O)cnn1-c1ccc(C(F)(F)F)cn1
47 | 160 to 162 °C | O=C(O)C1CC1c1ccc2c(c1)OCCO2 (centres undefined)
48 | 104 to 106 °C | O=C(O)c1cccc(CS)c1
49 | 114 to 116 °C | CC(C)(C)OC(=O)NCCCC(=O)NN
50 | 128 to 130 °C | Cc1ccccc1-c1cc(N)n(CCO)n1
51 | 45 to 47 °C | CON(C)C(=O)Cc1ccc(Cl)cc1
52 | 59 to 61 °C | CCOC(OCC)c1nnc[nH]1

Row | melting point | Compound
53 | 89 to 91 °C | CCOC(=O)c1oc2ccc(Br)cc2c1C
54 | 190 to 192 °C | O=C(O)c1cccnc1Oc1cccnc1
55 | 123 to 125 °C | FC(F)(F)Oc1ccc(-n2nnnc2S)cc1
56 | 69 to 71 °C | Nc1cccc(-c2noc(C3CC3)n2)c1
57 | 164 to 166 °C | NS(=O)(=O)c1ccc2c(c1)NCCC2
58 | 184 to 186 °C | O=c1[nH]c(-c2ccccc2)no1
59 | 273 to 275 °C | O=C(O)c1cc(-c2ccccc2Cl)nc2ccccc12
60 | 58 to 60 °C | Cn1nccc1CO
61 | 226 to 228 °C | CCOc1cc2c(c3[nH]c(C(=O)O)cc13)OC(C)C2 (centres undefined)
62 | 113 to 115 °C | O=C(c1cnoc1)c1ccccc1O
63 | 150 to 152 °C | Cc1cc(-n2cccc2)ccc1C(=O)O
64 | 184 to 186 °C | O=C(O)c1occc1CN1CCOCC1
65 | 169 to 171 °C | Nc1cnn(-c2ncccn2)c1
66 | 231 to 233 °C | O=C(O)CCn1c(=O)[nH]c(=O)c2ccccc21
67 | 69 to 71 °C | COC(=O)CCCc1csc(N)n1
68 | 177 to 179 °C | Nc1ccc(Cl)cc1C(=O)Nc1ccc(Cl)cn1
69 | 97 to 99 °C | O=CCN1C(=O)COc2ccccc21
70 | 70 to 72 °C | COc1ccc2cc(C(C)C#N)ccc2c1 (centres undefined)
71 | 175 to 177 °C | N#Cc1ccncc1C(=O)O
72 | 180 to 182 °C | O=C(O)C1CCN(S(=O)(=O)c2ccc3ccccc3c2)CC1
73 | 211 to 213 °C | Cc1c(C(=O)O)cccc1-c1ccccn1
74 | 139 to 141 °C | COc1ccc(S(=O)(=O)CCC(=O)O)cc1OC
75 | 159 to 161 °C | Cc1ncsc1-c1nc(CN)no1
76 | 50 to 52 °C | Clc1ncnc2c1CCCCC2
77 | 107 to 109 °C | CCN1N=C(C)CC1=O
78 | 89 to 91 °C | COc1ccc(-c2nn(-c3ccccc3)cc2CCl)cc1

Further lines, the compound ahead of its results:

Row | Compound | melting point
79 | CCCCS(N)(=O)=O | 43 to 45 °C
80 | CN(CCOc1ccccc1F)C(=O)CCl | 68 to 70 °C
81 | ClCc1cnoc1-c1ccc(Cl)cc1 | 78 to 80 °C
82 | O=C(O)c1ccnc(Cl)c1I | 218 to 220 °C
83 | COCCS(=O)(=O)c1ccc(C(=O)O)cc1 | 160 to 162 °C
84 | COc1ccc(Br)cc1NC(=O)C1CCC1 | 84 to 86 °C
85 | NNC(=O)CCN1CCCC1 | 137 to 139 °C
86 | COC(=O)c1ccc(NS(=O)(=O)c2ccc(C)cc2)cc1 | 150 to 152 °C
87 | Cc1ccc(N)cc1NC(=O)c1ccncc1 | 201 to 203 °C
88 | CC(Nc1ccc(N(C)C)cc1)c1ccccn1 (centres undefined) | 121 to 123 °C
89 | COc1ccc(/C=C/C(=O)O)cc1F | 222 to 224 °C
90 | COc1ccc(CNC(=O)C2CCNCC2)cc1 | 118 to 120 °C
91 | Nc1nc2cc(Cl)ccc2n1CCCn1ccnc1 | 229 to 231 °C
92 | O=C(CCl)N(c1ccccc1)C1CCS(=O)(=O)C1 (centres undefined) | 208 to 210 °C
93 | CC1(c2ccc(C(N)=O)cc2)NC(=O)NC1=O (centres undefined) | 163 to 165 °C
94 | Cn1cc(C(=O)O)cn1 | 203 to 205 °C
95 | O=C(O)C1Cc2cc(F)ccc2O1 (centres undefined) | 129 to 131 °C
96 | COC(=O)Nc1ccc(O)cc1 | 115 to 117 °C
97 | COC(=O)c1cc(Oc2ccc(F)cc2)c(F)cc1N | 97 to 99 °C
98 | Cc1c(C(=O)O)cnn1CCOC1CCCCO1 (centres undefined) | 139 to 141 °C
99 | O=S(=O)(Cl)C1CCOCC1 | 34 to 36 °C
100 | CS(=O)(=O)CC1(CBr)CCOCC1 | 97 to 99 °C

Row | Compound | melting point
101 | Cn1ccc(S(=O)(=O)NCC2(N)CCCCC2)c1 | 94 to 96 °C
102 | CC(C)c1cccc(S(N)(=O)=O)c1 | 74 to 76 °C
103 | Cc1cc(C(=O)O)c2[nH]ncc2c1 | 286 to 288 °C
104 | CNC(=Nc1ccnn1C(C)C)c1ccco1 | 233 to 235 °C
105 | CS(=O)(=O)Nc1ccc(C(=O)CCl)cc1 | 155 to 158 °C
106 | Nc1nonc1-c1cccc(Cl)c1 | 133 to 135 °C
107 | NC(=O)C1COCCN1 (centres undefined) | 168 to 170 °C
108 | CN(C)S(=O)(=O)c1c(Cl)nc2ccccn12 | 109 to 111 °C
109 | O=C(O)C1CCCN(S(=O)(=O)c2ccc(Cl)cc2)C1 (centres undefined) | 202 to 204 °C
110 | Cn1c(Cl)nc(Cl)c1C=O | 61 to 63 °C
111 | O=C(O)CCCc1nc2ccccc2s1 | 148 to 150 °C
112 | Nc1nsc(N2CCNCC2)n1 | 193 to 195 °C
113 | CC1CCC2(CC1)NC(=O)N(N)C2=O (centres undefined) | 118 to 120 °C
114 | Cc1c(Cl)cccc1N1C(=O)C=CC1=O | 68 to 70 °C
115 | Nc1ccc2c(c1)OCC(=O)N2 | 217 to 219 °C
116 | NS(=O)(=O)c1cc(C(F)(F)F)ccc1F | 127 to 129 °C
117 | O=S(=O)(c1ccc(N2CCNCC2)nc1)N1CCOCC1 | 184 to 186 °C
118 | O=C(O)c1ccc(S(=O)(=O)Cl)c(Cl)c1 | 199 to 201 °C
119 | O=C(O)CCS(=O)(=O)c1ccccc1Cl | 132 to 134 °C
120 | O=C(O)c1cc(Cl)cc(S(=O)(=O)Cl)c1F | 162 to 164 °C
121 | CC(C)COC(C)C(N)=NO (centres undefined) | 63 to 65 °C
122 | COc1ccc(Cl)cc1NS(=O)(=O)c1cccc(C(=O)O)c1 | 155 to 157 °C

Row | Compound | melting point
123 | CCOC(=O)c1c(C)n(Cc2ccccc2)c2ccc(O)cc12 | 198 to 200 °C
124 | CC(C)(C)c1noc2ncc(C(=O)O)cc12 | 207 to 209 °C
125 | COc1ccc(NS(=O)(=O)c2cccc(N)c2)cc1 | 109 to 111 °C
126 | O=C(CN=C=S)NC1CC1 | 169 to 171 °C
127 | Cn1c(Cl)cnc1CO | 110 to 112 °C
128 | N#Cc1ccccc1CN1CCCC1C(N)=O (centres undefined) | 88 to 90 °C
129 | Cc1ccc(C(C)(C)C)cc1S(N)(=O)=O | 138 to 140 °C
130 | OCCNc1ccc(Cl)nn1 | 133 to 135 °C
131 | CC1CNC(=Nc2ccc(C(C)C)cc2)S1 (centres undefined) | 109 to 111 °C
132 | NC(=O)CCOc1ccc(N)cc1 | 110 to 112 °C
133 | CCC(C)C(=O)NCC(=O)O (centres undefined) | 101 to 104 °C
134 | CN(CC(=O)Nc1c(Cl)cccc1Cl)C(=O)CCl | 188 to 190 °C
135 | CC(=O)N1CC(C(=O)O)C1 | 149 to 151 °C
136 | O=c1[nH]c2ccccc2cc1CCl | 199 to 201 °C
137 | NNC(=O)CN1CCCC1=O | 99 to 101 °C
138 | Cc1n[nH]c(C(N)=O)n1 | 222 to 224 °C
139 | O=C(O)c1cccc(S(=O)(=O)Nc2ccc(F)cc2)c1 | 140 to 142 °C
140 | CC(C)NC(C)(C)CO | 42 to 44 °C
141 | COc1ccc(C(=O)O)cc1S(=O)(=O)N1CCCC1 | 218 to 220 °C
142 | O=Cc1sc(N2CCCCC2)nc1-c1cccs1 | 117 to 119 °C
143 | Cc1cccc(COc2ccc(S(N)(=O)=O)cc2)c1 | 159 to 161 °C
144 | O=C(CCl)NCC1CCCc2ccccc21 (centres undefined) | 114 to 116 °C

Reference: a melting point compilation (Tetko et al.)
